# Read-outs that look alike come from different tables or passages of the source. Numbered stars: 1 amine (or outer) side, 2 acyl side, 3 side chain; on linkers, the order of the positions; unused ones are H or OH. Bridge positions count the residues as written; N and C are the ends. Square brackets hold non-standard residues; d marks the D form. Peptide text beside a SMILES is read from it. X1 = C=C(N[*:2])c1nc(-c2nc(-c3nc(C(=O)OC)cs3)ccc2C(=O)[*:1])cs1; NMePhe(4-NO2) = CN[C@@H](Cc1ccc([N+](=O)[O-])cc1)C(=O)O; LeuThz(4-CO) = CC(C)C[C@H](N[*:1])c1nc(C(=O)[*:2])cs1; ValThz = CC(C)[C@H](N[*:1])c1nc(C(=O)[*:2])cs1; Tic(7-OH) = O=C(O)[C@@H]1Cc2ccc(O)cc2CN1; X3 = C/C=C(\N[*:1])c1nc(C(=O)[*:2])cs1; Aad = N[C@@H](CCCC(=O)O)C(=O)O; Dhb = C/C=C(\N)C(=O)O; Dha = C=C(N)C(=O)O; Sar = CNCC(=O)O
# Tests used:
# TNIK [1] = target: T1, TNIK (Homo sapiens, UniProt Q9UKE5); assay: ADP-Glo kinase inhibition assay; assay type: biochemical; parameters: Biotinylated TNIK (kinase domain, amino acids 1-314;); biotin (biotinylated protein); purchased Carna Biosciences (Kobe, Japan)
# T1 sequence (Q9UKE5 1-314): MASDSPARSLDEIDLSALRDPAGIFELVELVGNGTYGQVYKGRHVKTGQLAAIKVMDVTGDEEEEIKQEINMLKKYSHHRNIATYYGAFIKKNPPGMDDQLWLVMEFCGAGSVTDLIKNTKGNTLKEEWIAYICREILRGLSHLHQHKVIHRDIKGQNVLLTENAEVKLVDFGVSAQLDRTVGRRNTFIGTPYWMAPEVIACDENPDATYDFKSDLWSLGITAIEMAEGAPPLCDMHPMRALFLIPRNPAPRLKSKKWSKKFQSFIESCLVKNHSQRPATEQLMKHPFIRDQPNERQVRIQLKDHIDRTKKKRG
# Method: 2.9. Kinase inhibition assays with ADP-Glo
# The ADP-Glo assay system was purchased from Promega. The kinase reaction buffer contained 50 mM Tris (pH 7.5), 10 mM MgCl2 and 0.01% (v/v) triton X-100. TNIK (1.25 nM) was incubated with various concentrations of analyte inhibitors in kinase reaction buffer at 25 °C for 10 min. After, the reactions were initiated by the addition of ATP and substrate […]
# peptide (MSTtide, sequence: NH2-NKGYNTLRRKK-CONH2;ref 14 synthesized using the standard Fmoc SPPS techniques). The final mixtures containing 0.5 nM TNIK, 25 µM ATP, 15 µM MSTtide and variable concentration of the inhibitors were incubated at 25 °C for 30 min. The reactions were stopped by the addition of ADP -Glo reagent (1 volume), and the luminescent signal was developed following the manufacturer’s instructions. Luminesce was recorded on a Tecan M1000 PRO microplate reader (Tecan Group) with 1 s acquisition time and no signal attenuation. TNIK kinase activity was normalized to a no inhibitor control, and […]
# values to the standard 4-parameter logistic curve model. […]
# trypsin = system: T2, trypsin; assay: Stability to agarose-immobilized trypsin (LC/MS); assay type: in vitro ADME; settings: isolated enzyme trypsin, pH 7.9
# T2 construct: purchased Thermo Fisher
# Method: 2.10. Thiopeptide metabolic stability experiments
# Stability to trypsin. To a solution of the analyte thiopeptide (15 µM) and the internal standard peptide (5 µM NH2-PEG5-wstndwdtnd-PEG5-CONH2;ref 16 lower case encoding is for D-amino acids; synthesized using the standard Fmoc SPPS techniques) in digestion buffer [50 mM tris, 100 mM NaCl, 10 mM EDTA, pH 7.9] was added agarose -immobilized TPCK-treated trypsin (Thermo Fisher; 1 µL of resin slurry; 100 µL final reaction volume ) that was previously washed with digestion buffer thrice. The mixture was agitated at 22 °C, and at various timepoints (0.5, 1, 2, 4, and 6 h) aliquots were withdrawn and quenched with 14 volumes of water/acetonitrile mixture [30: 70 (v/v) water: acetonitr ile with 0.1% (v/v) TFA]. […]
# TNIK [2] = target: T1, TNIK; assay: Surface plasmon resonance, binding of thiopeptides to immobilized biotinylated TNIK (single-cycle, then multicycle kinetics); parameters: Biotinylated TNIK (kinase domain, amino acids 1-314;); biotin (biotinylated protein); purchased Carna Biosciences (Kobe, Japan); settings: for KD / koff / kon / Kd: SPR kinetic data, binding to immobilized TNIK; for KD (binding affinity to TNIK): average from three multicycle kinetic experiments, 1:1 binding model, 25 °C; for Kd: read-out: KD
# Method: 2.8. Surface plasmon resonance
# In the initial experiment, binding affinities between the thiopeptides and TNIK were measured with a Biacore T200 instrument (GE Healthcare) at 25 °C. The assay buffer contained 50 mM Tris (pH 7.5), 150 mM NaCl, 10 mM MgCl2, 0.01% (v/v) tween-20 and 0.1% (v/v) DMSO. For wTP3, the assay buffer additionally contained ATP (f.c.: 1 mM).
# Biotinylated TNIK was immobilized on a Biacore CAP chip (GE Healthcare) to a surface density of 950-1200 response units following the standard immobilization protocols provided by the manufacturer. The interaction sensorgrams were measured as single-cycle kinetics performed with five concentrations of the ligand sequentially flown over the chip at a flow rate of 15 μL/min allowing for 20 or 30 s association and 70 or 60 s for dissociation between the steps. The final dissociation step was allowed to proceed for 180 s. […]
# was repeated in triplicate on a Biacore 8K instrument (GE Healthcare) using a multi cycle kinetics format. The experimental details were as above, except ATP was not added to the buffer for wTP3. Kinetic parameters and affinities of the interaction were determined assuming the standard 1:1 binding model using the Biacore software (GE Healthcare).
# Reported KD values were calculated from the average measured association and dissociation rates (Table S5).
# [3] = Serum stability assay (LC/MS against internal standard); settings: for half-life at 10 µM: human, human serum diluted in TBS, pH 7.6
# Method: The ratio of areas under the peak for the intact analyte over the internal standard (EIC
# chromatograms generated with m/z ± 3 cutoff values) were used to calculate the extent of
# analyte degradation. Thiopeptide half-life values were obtained from non-linear regression
# (scipy)15 of experimentally measured values to the standard first order kinetic decomposition
# Serum stability assay. To a solution of analyte thiopeptide (13.3 µM) and the internal
# standard peptide in TBS [5 µM; buffer: 50 mM Tris (pH 7.6), 150 mM NaCl] human serum
# (0.33 volumes; Cosmo Bio) was added on ice. The solutions were mixed well and transferred to a 37 °C thermostat. At various timepoints, aliquots were withdrawn and quenched with 2.3 volumes of methanol containing 30 mM iodoacetamide. The mixtures were incubated on
# ice for 15 min and then at 25 °C for 30 min. The samples were then centrifuged (15300 g for
# 5 min), and the supernatant (0.5 µL) was analyzed by LC/MS (section 2.5) using method 6
# 1 – 10 min 1 – 81% B, linear ramp
# Data analysis was conducted as for the trypsin digestion assays.
# [4] = system: agarose-immobilized TPCK-treated trypsin (Thermo Fisher); assay: agarose-immobilized TPCK-treated trypsin in digestion buffer [50 mM tris, 100 mM NaCl, 10 mM EDTA, pH 7.9]; settings: 22 °C, up to 6 h
# [5] = Stability to glutathione (LC/MS)
# Method: Stability to glutathione. To a freshly prepared solution of glutathione (5 mM) in stability
# buffer [50 mM HEPES (pH 7.5), 100 mM NaCl] was added a solution of analyte (1.5 mM
# thiopeptide in DMSO; f. c.: 10 µM). The contents were mixed and transferred to a 37 °C
# thermostat. At various time points (0.5, 1, 2, 4, 6, and 10 h) aliquots were withdrawn and
# quenched with 2 volumes of methanol containing 30 mM iodoacetamide. The samples were
# analyzed by LC/MS (0.3 µL; section 2.6) using method 3. Areas under the peak curve for all
# thiopeptide-derived products in the sample (TIC chromatograms) were used to calculate
# fractions of intact analyte. Thiopeptide half-life values were obtained from non-linear
# regression (scipy)15 of experimentally measured values to the pseudo-first order
# approximation for the reaction kinetics which can be used since [glutathione] >> [analyte].
# [6] = 0.5 nM TNIK, 25 µM ATP, 15 µM MSTtide, 4-parameter logistic fit, read-out: ADP-Glo IC50 against TNIK
Compound,IC50 (TNIK [1]; [6]) [µM],half-life at 15 µM (trypsin) [h],KD (TNIK [2]),KD (binding affinity to TNIK) (TNIK [2]),half-life at 10 µM [3] [h],not cleaved [4],other results
C=C1NC(=O)[C@H](Cc2ccc([N+](=O)[O-])cc2)N(C)C(=O)CN(C)C(=O)CNC(=O)[C@H](Cc2c[nH]c3ccccc23)NC(=O)c2ccc(-c3nc(C(=O)OC)cs3)nc2-c2csc(n2)C(=C)NC(=O)c2csc(n2)[C@H](CC(C)C)NC(=O)[C@H](CO)NC(=O)[C@H](CCCNC(=N)N)NC(=O)[C@H](CC(N)=O)NC(=O)CN(C)C(=O)[C@H](CC(C)C)NC(=O)[C@H](CC(N)=O)NC1=O [hTP6] (WG[Sar][NMePhe(4-NO2)][Dha]NL[Sar]NRS[LeuThz(4-CO)]; linker N-C via X1),10.7 ± 1.1,1.01 ± 0.07,weak/no binding; fitting not conducted,no measurable binding/inhibition,3.6 ± 0.1,–,"metabolic stability, τ1/2, serum ([3]; human serum, 37 °C, first-order decay fit): unstable"
C=C1NC(=O)[C@H](CCCC(N)=O)NC(=O)[C@@H]2Cc3ccc(O)cc3CN2C(=O)[C@H](CC(N)=O)NC(=O)/C(=C/C)NC(=O)[C@H](Cc2ccc([N+](=O)[O-])cc2)N(C)C(=O)CN(C)C(=O)[C@H](C)NC(=O)[C@H](Cc2c[nH]c3ccccc23)NC(=O)c2ccc(-c3nc(C(=O)OC)cs3)nc2-c2csc(n2)C(=C)NC(=O)c2csc(n2)[C@H](C(C)C)NC(=O)C(=C)NC(=O)/C(=C/C)NC1=O [wTP8] (WA[Sar][NMePhe(4-NO2)][Dhb]N[Tic(7-OH)][Aad](NH2)[Dha][Dhb][Dha][ValThz]; linker N-C via X1),15.2 ± 1.5,> 100,weak/no binding; fitting not conducted,no measurable binding/inhibition,34.9 ± 2.3,–,–
C=C1NC(=O)[C@@H]2Cc3ccc(O)cc3CN2C(=O)CN(C)C(=O)/C(=C/C)NC(=O)CN(C)C(=O)[C@H](CCCC(N)=O)NC(=O)[C@H](Cc2c[nH]c3ccccc23)NC(=O)[C@H](Cc2c[nH]c3ccccc23)NC(=O)c2ccc(-c3nc(C(=O)OC)cs3)nc2-c2csc(n2)C(=C)NC(=O)CNC(=O)/C(=C/C)NC(=O)[C@H](Cc2ccc([N+](=O)[O-])cc2)N(C)C(=O)[C@H]([C@@H](C)O)NC(=O)C(=C)NC1=O [wTP4] (WW[Aad](NH2)[Sar][Dhb][Sar][Tic(7-OH)][Dha][Dha]T[NMePhe(4-NO2)][Dhb]G; linker N-C via X1),0.24 ± 0.03,> 100,–,–,14.3 ± 0.7,–,"ADP-Glo IC50 against TNIK (TNIK [1]; 0.5 nM TNIK, 25 µM ATP, 15 µM MSTtide, 4-parameter logistic fit): sub-μM; koff (TNIK [2]): 0.000432 s⁻¹; kon (TNIK [2]): 42500 M⁻¹ s⁻¹; Kd (TNIK [2]): 0.0102 µM"
WCgTgySSTfTG,–,–,–,–,–,did not degrade (6 h); completely stable; τ1/2 >100 h,–
WCgSgySSTfSG,–,–,–,–,–,did not degrade (6 h); completely stable; τ1/2 >100 h,–
WLPySTgSTTC,–,–,–,–,–,"did not degrade (6 h); τ1/2 > 100 h, no measurable degradation during the course of the experiment",–
"C=C1NC(=O)C(=C)NC(=O)[C@H](CCCCN)NC(=O)[C@H](CC(C)C)NC(=O)[C@H]([C@@H](C)O)NC(=O)[C@H](CCCCN)NC(=O)[C@H](Cc2ccc(O)cc2)NC(=O)[C@H]([C@@H](C)CC)NC(=O)[C@H](Cc2ccccc2)NC(=O)CNC(=O)[C@H](Cc2c[nH]c3ccccc23)NC(=O)c2ccc(-c3nc(C(=O)OC)cs3)nc2-c2csc(n2)C(=C)NC(=O)CNC1=O [TP1, reference compound] (WGFIYKTLK[Dha][Dha]G; linker N-C via X1)",–,–,–,–,2.3 ± 0.1,–,–
C=C1NC(=O)[C@@H]2CCCN2C(=O)[C@H]([C@@H](C)O)NC(=O)CN(C)C(=O)CN(C)C(=O)CN(C)C(=O)[C@H](Cc2ccc([N+](=O)[O-])cc2)N(C)C(=O)[C@H](CC(N)=O)NC(=O)[C@@H]2Cc3ccc(O)cc3CN2C(=O)[C@H](Cc2ccc([N+](=O)[O-])cc2)N(C)C(=O)[C@H](CO)NC(=O)[C@H](CC(N)=O)NC(=O)[C@H]([C@@H](C)O)NC(=O)[C@H](Cc2c[nH]c3ccccc23)NC(=O)c2ccc(-c3nc(C(=O)OC)cs3)nc2-c2csc1n2 [wTP13] (WTNS[NMePhe(4-NO2)][Tic(7-OH)]N[NMePhe(4-NO2)][Sar][Sar][Sar]TP; linker N-C via X1),–,–,weak/no binding; fitting not conducted,no measurable binding/inhibition,99.4 ± 13,–,"IC50 (TNIK [1]): 9.6 ± 0.7 µM; half-life at 15 µM (trypsin; agarose-immobilized trypsin, 22 °C, read-out: metabolic stability, τ1/2, trypsin): > 100 h"
C=C1NC(=O)CN(C)C(=O)/C(=C/C)NC(=O)C(=C)NC(=O)[C@@H]2Cc3ccc(O)cc3CN2C(=O)[C@@H]2CCCN2C(=O)[C@H](CC(C)C)NC(=O)[C@H](Cc2c[nH]c3ccccc23)NC(=O)[C@H](Cc2c[nH]c3ccccc23)NC(=O)c2ccc(-c3nc(C(=O)OC)cs3)nc2-c2csc(n2)C(=C)NC(=O)c2csc(n2)/C(=C/C)NC(=O)/C(=C/C)NC1=O [hTP4] (WWLP[Tic(7-OH)][Dha][Dhb][Sar][Dha][Dhb][X3]; linker N-C via X1),24.9 ± 3.6,> 100,weak/no binding; fitting not conducted,no measurable binding/inhibition,18.7 ± 1.5,–,–
TNSfyNfgggTP,–,–,–,–,–,completely stable; τ1/2 >100 h,–
C=C1NC(=O)[C@@H]2Cc3ccc(O)cc3CN2C(=O)[C@H](CCCNC(=N)N)NC(=O)[C@H](CC(C)C)NC(=O)[C@H](Cc2ccc([N+](=O)[O-])cc2)N(C)C(=O)[C@H](CC(N)=O)NC(=O)[C@H](CC(C)C)NC(=O)[C@H](CCCNC(=N)N)NC(=O)[C@H](CCCC(N)=O)NC(=O)[C@H](C)NC(=O)[C@H](Cc2c[nH]c3ccccc23)NC(=O)c2ccc(-c3nc(C(=O)OC)cs3)nc2-c2csc(n2)C(=C)NC(=O)CNC1=O [hTP13] (WA[Aad](NH2)RLN[NMePhe(4-NO2)]LR[Tic(7-OH)][Dha]G; linker N-C via X1),2.7 ± 0.2,1.2 ± 0.1,–,–,18.9 ± 1.5,–,"half-life at 10 µM ([5]; 5 mM glutathione in HEPES buffer, pH 7.5): 1.9 ± 0.1 h; metabolic stability, τ1/2, glutathione ([5]; 5 mM glutathione, pH 7.5, 37 °C): less than 2 h; koff (TNIK [2]): 0.0533 s⁻¹; kon (TNIK [2]): 648000 M⁻¹ s⁻¹; Kd (TNIK [2]): 0.082 µM"
AgfTNyCSTSVC,–,–,–,–,–,did not degrade (6 h); completely stable; τ1/2 >100 h,–

# Reference: article PMC10979747 (Journal of the American Chemical Society, 2024)
